Where two headings read alike, the source gives them in different places.
Tests used:
[1] = system: T. gondii RH strain (RH-Tub-eYFP) tachyzoites; experiment: microbe, parasite or virus in culture; assay type: cell-based, Toxoplasma gondii; details: 72 h; for percent parasite growth at 2 µg/mL: Toxoplasma gondii
[2] = system: P. falciparum 3D7 parasites; experiment: P. falciparum growth inhibition assay, 2-cycle (120 h treatment), delayed-death screen and dose-response; assay type: cell-based, Plasmodium falciparum; details: for activity at 2 µg/mL: Plasmodium falciparum
[3] = system: P. falciparum 3D7 parasites; experiment: P. falciparum growth inhibition assay, 1-cycle (72 h treatment), SYBR DNA staining (library screen at 2 μg/mL and dose-response); assay type: cell-based, Plasmodium falciparum; details: for activity at 2 µg/mL: Plasmodium falciparum
[4] = T. gondii, screen at 2 μg/mL, replicate 1
[5] = T. gondii, screen at 2 μg/mL, replicate 2
[6] = P. falciparum, 120 h, screen at 2 μg/mL, replicate 1
[7] = P. falciparum, 120 h, screen at 2 μg/mL, replicate 2
[8] = P. falciparum, 72 h, screen at 2 μg/mL, replicate 1
[9] = P. falciparum, 72 h, screen at 2 μg/mL, replicate 2
[10] = 3D7, P. falciparum, 120 h, screen at 2 μg/mL, replicate 1, read-out: Pf_120h_%Growth_Rep1
[11] = 3D7, P. falciparum, 120 h, screen at 2 μg/mL, replicate 2, read-out: Pf_120h_%Growth_Rep2
[12] = 3D7, P. falciparum, 72 h, screen at 2 μg/mL, replicate 1, read-out: Pf_72h_%Growth_Rep1
[13] = 3D7, P. falciparum, 72 h, screen at 2 μg/mL, replicate 2, read-out: Pf_72h_%Growth_Rep2
[14] = T. gondii, screen at 2 μg/mL, replicate 1, read-out: Tg_72h_%Growth_Rep1
[15] = T. gondii, screen at 2 μg/mL, replicate 2, read-out: Tg_72h_%Growth_Rep2

Compound: CCC/C=C/C=C/C1C[C@@H](O)[C@@H](O)C(=O)[C@H]1C=O (stereo partly drawn) [Frequentin]
- Tg_72h_%Growth_Rep1 ([1]; library screen at 2 μg/mL, % growth, replicate 1): 198.87%
- Tg_72h_%Growth_Rep2 ([1]; library screen at 2 μg/mL, % growth, replicate 2): 96.89%
- Pf_120h_%Growth_Rep1 ([2]; library screen at 2 μg/mL, 120 h, % growth, replicate 1): 99.31%
- Pf_120h_%Growth_Rep2 ([2]; library screen at 2 μg/mL, 120 h, % growth, replicate 2): 94.53%
- Pf_72h_%Growth_Rep1 ([3]; library screen at 2 μg/mL, 72 h, % growth, replicate 1): 84.65%
- Pf_72h_%Growth_Rep2 ([3]; library screen at 2 μg/mL, 72 h, % growth, replicate 2): 84.20%

Compound: COc1ccc2c3c([nH]c2c1)C(C)(C)C=CN1C(=O)[C@H](C)NC(=O)/C1=C/3 [Cycloechinulin]
- Tg_72h_%Growth_Rep1 [1, 4]: 136.66%
- Tg_72h_%Growth_Rep2 [1, 5]: 103.07%
- Pf_120h_%Growth_Rep1 [2, 6]: 51.02%
- Pf_120h_%Growth_Rep2 [2, 7]: 53.71%
- Pf_72h_%Growth_Rep1 [3, 8]: 63.19%
- Pf_72h_%Growth_Rep2 [3, 9]: 64.05%

Compound: O=C(O)CCC(=O)OC[C@@H](NC(=O)C(Cl)Cl)[C@H](O)c1ccc([N+](=O)[O-])cc1 [Chloramphenicol succinate]
- percent parasite growth at 2 µg/mL ([1]; read-out: Tg_72h_%Growth_Rep1): 79.4%
- percent parasite growth at 2 µg/mL ([1]; read-out: Tg_72h_%Growth_Rep2): 97.4%
- activity at 2 µg/mL [2, 10]: 150%
- activity at 2 µg/mL [2, 11]: 95.2%
- activity at 2 µg/mL [3, 12]: 111%
- activity at 2 µg/mL [3, 13]: 86.6%

Compound: CC[C@H]1NC(=O)[C@@H](NC(=O)c2ncccc2O)[C@@H](C)OC(=O)[C@H](c2ccccc2)NC(=O)[C@@H]2CC(=O)CCN2C(=O)[C@H](Cc2ccccc2)N(C)C(=O)[C@@H]2CCCN2C1=O [Virginiamycin S1]
- Tg_72h_%Growth_Rep1 [1, 4]: 137.70%
- Tg_72h_%Growth_Rep2 [1, 5]: 85.91%
- Pf_120h_%Growth_Rep1 [2, 6]: 110.70%
- Pf_120h_%Growth_Rep2 [2, 7]: 75.61%
- Pf_72h_%Growth_Rep1 [3, 8]: 88.54%
- Pf_72h_%Growth_Rep2 [3, 9]: 126.74%

Compound: CC(=O)N[C@H]1[C@H](O[C@@H]2c3ccc(c(Cl)c3)Oc3cc4cc(c3O[C@@H]3O[C@H](CO)[C@@H](O)[C@H](O)[C@H]3NC(=O)CCCCCCCC(C)C)Oc3ccc(cc3Cl)C[C@H]3NC(=O)[C@H](N)c5ccc(O)c(c5)Oc5cc(O)cc(c5)[C@H](NC3=O)C(=O)N[C@H]4C(=O)N[C@H]3C(=O)N[C@@H]2C(=O)N[C@H](C(=O)O)c2cc(O)cc(O[C@H]4O[C@H](CO)[C@@H](O)[C@H](O)[C@@H]4O)c2-c2cc3ccc2O)O[C@H](CO)[C@@H](O)[C@@H]1O [Teicoplanin A2-5]
- Tg_72h_%Growth_Rep1 [1, 4]: 105.42%
- Tg_72h_%Growth_Rep2 [1, 5]: 91.45%
- Pf_120h_%Growth_Rep1 [2, 6]: 86.61%
- Pf_120h_%Growth_Rep2 [2, 7]: 122.81%
- Pf_72h_%Growth_Rep1 [3, 8]: 86.27%
- Pf_72h_%Growth_Rep2 [3, 9]: 115.48%

Compound: CO[C@H]1[C@H](O)C[C@@H](O[C@@H]2C[C@H](Oc3cc4cc5c(c(O)c4c(O)c3C)C(=O)[C@@H](O[C@H]3C[C@H](O[C@H]4C[C@H](O[C@H]6C[C@@](C)(O)[C@@H](OC(=O)C(C)C)[C@H](C)O6)[C@H](O)[C@@H](C)O4)[C@H](O)[C@@H](C)O3)[C@H]([C@H](OC)C(=O)[C@@H](O)[C@@H](C)O)C5)O[C@H](C)[C@H]2OC(C)=O)O[C@@H]1C [Chromomycin A2]
- percent parasite growth at 2 µg/mL [1, 14]: 2.51%
- percent parasite growth at 2 µg/mL [1, 15]: 1.82%
- activity at 2 µg/mL ([2]; 3D7, 120 h, P. falciparum, 120 h, screen at 2 μg/mL, replicate 1, read-out: Pf_120h_%Growth_Rep1): 3.01%
- activity at 2 µg/mL ([2]; 3D7, 120 h, P. falciparum, 120 h, screen at 2 μg/mL, replicate 2, read-out: Pf_120h_%Growth_Rep2): 9.04%
- activity at 2 µg/mL ([3]; 3D7, 72 h, P. falciparum, 72 h, screen at 2 μg/mL, replicate 1, read-out: Pf_72h_%Growth_Rep1): 6.05%
- activity at 2 µg/mL ([3]; 3D7, 72 h, P. falciparum, 72 h, screen at 2 μg/mL, replicate 2, read-out: Pf_72h_%Growth_Rep2): 1.3%

Compound: O=C1N[C@@H](Cc2c[nH]c3ccccc23)C(=O)N2CCC[C@@H]12 [Brevianamide F]
- percent parasite growth at 2 µg/mL [1, 14]: 83.3%
- percent parasite growth at 2 µg/mL [1, 15]: 92%
- activity at 2 µg/mL [2, 10]: 148%
- activity at 2 µg/mL [2, 11]: 91%
- activity at 2 µg/mL [3, 12]: 103%
- activity at 2 µg/mL [3, 13]: 84.4%

Compound: CO[C@H]1/C=C\C=C(\C)C[C@H](C)[C@H](O)[C@H](C)/C=C(C)\C=C(\C)C(=O)O[C@@H]1[C@@H](C)[C@@H](O)[C@H](C)[C@@]1(O)C[C@@H](OC(=O)/C=C/C(=O)O)[C@H](C)[C@@H](C(C)C)O1 [TS 155-2]
- Tg_72h_%Growth_Rep1 [1, 4]: 1.68%
- Tg_72h_%Growth_Rep2 [1, 5]: -0.35%
- Pf_120h_%Growth_Rep1 [2, 6]: 23.01%
- Pf_120h_%Growth_Rep2 [2, 7]: 6.11%
- Pf_72h_%Growth_Rep1 [3, 8]: 3.32%
- Pf_72h_%Growth_Rep2 [3, 9]: -2.51%

Compound: COc1ccc(/C=C/C(=O)O)cc1O [BIA-I1729]
- Tg_72h_%Growth_Rep1 ([1]; T. gondii RH, library screen at 2 μg/mL, % growth, replicate 1): 136.89%
- Tg_72h_%Growth_Rep2 ([1]; T. gondii RH, library screen at 2 μg/mL, % growth, replicate 2): 92.18%
- Pf_120h_%Growth_Rep1 ([2]; P. falciparum 3D7, 120 h, library screen at 2 μg/mL, % growth, replicate 1): 85.87%
- Pf_120h_%Growth_Rep2 ([2]; P. falciparum 3D7, 120 h, library screen at 2 μg/mL, % growth, replicate 2): 112.77%
- Pf_72h_%Growth_Rep1 ([3]; P. falciparum 3D7, 72 h, library screen at 2 μg/mL, % growth, replicate 1): 80.53%
- Pf_72h_%Growth_Rep2 ([3]; P. falciparum 3D7, 72 h, library screen at 2 μg/mL, % growth, replicate 2): 116.78%
